Test results taken from paper PMC5930436, “Overexpressed HDAC8 in cervical cancer cells shows functional redundancy of tubulin deacetylation with HDAC6” (Cell Communication and Signaling : CCS, 2018).
“Also recorded” adds a separate entry of the source.

Key:
[1] = tested on: acetylated alpha tubulin, HEK 293 T; test: Immunoblot of acetylated alpha tubulin in HEK 293 T cells; format: cell-based, human; conditions: HEK 293 T, Forskolin (10 μM), 45 min, immunoblot normalized with GAPDH
Procedure: (§1) Human embryonic kidney cells, HEK293T, human cervical carcinoma cells, HeLa, human breast cancer cells, MDA-MB 231, human lung adenocarcinoma cellsA549, chronic myeloid leukemia cells, K562, and human colon cancer cells, HCT11, were obtained from National Centre for Cell Sciences (NCCS), Pune, India. Cell line authentication by STR analysis was performed for 10 genetic loci for all the cell lines by Life code, Genomic technologies Pvt. Ltd., and tested for mycoplasma negative by performing PCR (mycoplasma specific genes) using EZdetect PCR kit for mycoplasma detection (CCK009). All the cells were cultured in high glucose DMEM medium containing 10% foetal bovine serum and 1% Penicillin/streptomycin (Himedia). Cells were seeded in 60 mm dishes and upon attaining 80–90% confluency, treatment was given with PCI-34051(Cayman Chemicals) (10 μM/20 μM) and tubastatin (5 μM) for 24 h or both in combination (PCI-34051 and Tubastatin) and Forskolin (Sigma) (10 μM) for 45 min independently along with untreated control as described earlier.
(§2) Total, cytoplasmic and nuclear fractions of HeLa or HEK 293 T cells treated with or without PCI-34051 (20 μM), [12] tubastatin (5 μM) and/or forskolin (10 μM) were prepared as described previously. Total protein samples of HEK 293 T, HeLa, MDAMB 231, K562, A549 and HCT11 cells / immunoprecipitated HDAC8 and HDAC6 samples from both HeLa and HEK 293 T lysates / HDAC8 siRNA transfected HEK 293 T and HeLa lysates were also prepared. The proteins were separated on 10 or 12% SDS-PAGE, transferred on to nitrocellulose membrane and probed with primary antibodies of HDAC8, Beta actin, Alpha tubulin, anti-acetylated alpha tubulin, HDAC6 and GAPDH. The bands were visualized using chemiluminiscence after probing with HRP-conjugated secondary antibody.
(§3) Source for siRNA oligonucleotides were considered from with sequence, HDAC8 Sense: […] and Anti-sense: […]. The oligonucleotides were converted into siRNA by following standard protocol as described earlier. HeLa and HEK 293 T cells were transfected with HDAC8 siRNA (10–15 μg/100 mm dish) using lipofectamine 2000 (Invitrogen), and considering untransfected as control. Cells were harvested after 72 h of post-transfection and processed for total RNA and protein isolation.

HDAC8 [2] = test: HDAC8 FLUOR DE LYS fluorometric enzyme activity assay on immunoprecipitated HDAC8 fractions; format: biochemical, human; conditions: Forskolin (10 μM); for HDAC8 enzyme activity, nuclear fraction: immunoprecipitated nuclear fraction (5 μg), vs untreated
Procedure: HDAC8 enzyme activity assay was performed using HDAC8 FLUOR DE LYS fluorometric assay kit (Cat# BML-AK518–0001) for Control, PCI-34051(10 μM), Forskolin (10 μM), Tubastatin (5 μM) - treated and immunoprecipitated samples of either total, cytoplasmic and nuclear fractions of HeLa and HEK 293 T cells using anti-HDAC8 antibody and anti-HDAC6 (2 μg antibody for ~ 500 μg) according to the manufacturer’s protocol.

HDAC8 [3] = conditions: by phosphorylation (PKA); cited from earlier work
Source text: The cytoplasmic localization of HDAC8 was further confirmed by immunoblot analysis using total, cytoplasmic and nuclear protein fractions of HEK 293 T and HeLa (Fig. 1d). […] With forskolin treatment, there was significant inc ... || In silico and spectroscopy based results have confirmed the interaction of HDAC8 with alpha tubulin & acetylated alpha tubulin peptide. To further validate the functional interaction we carried out IP and co-IP experiments with HDAC8 and acetylated alpha tubulin (ac-tubulin) antibodies. […] Densitometry results for the fold expression ...

HDAC8 [4] = test: Immunofluorescence / confocal localization of HDAC8 in HeLa and HEK 293 T cells; format: cell-based, human; conditions: Forskolin (10 μM), 45 min
Procedure: as §1
HeLa and HEK 293 T cells (Control, Forskolin, PCI-34051 (20 μM) treated) were fixed with 4% formaldehyde in PBS for 20 min at RT followed by permeabilization with 0.25% TritonX-100 in PBS. […]

[5] = tested on: acetylated alpha tubulin, HeLa; test: Immunoblot of acetylated alpha tubulin in HeLa cells; format: cell-based, human; conditions: Forskolin (10 μM), 45 min, immunoblot normalized with GAPDH
Procedure: as §1, §2, §3

tubulin polymerization = conditions: cited from earlier work
Source text: Tubulins are one of the major cytoskeletal proteins and consists of alpha, beta and gamma tubulin proteins in the family. Acetylated alpha tubulin is known to stabilize microtubules and effect intracellular transport, cell migration and primary determinant for cell morphology. HDAC8 inhibition impedes the migration property in HeLa in turn affecting the morphology.

HeLa cells [6] = test: Cell migration (wound) assay in HeLa cells; format: cell-based, human; conditions: PCI-34051 (10 μM) or Paclitaxel (10 μM), 24 and 48 h
Procedure: HeLa cells are grown in 6 well plates in duplicates till it attains 90% confluency and starved with serum free media for overnight. Using a sterile 200 μl tip wound is created by drawing straight lines at three different points in each well. Detached cells are aspirated and washed three times with 1XPBS. Cells are treated with PCI-34051 (10 μM & 20 μM) and Paclitaxel (10 μM & 20 μM) dissolved in 2% FBS respectively along with control (untreated). Migrated cells into the wound were examined by capturing images using Olympus CKX41, ProgRes CT3 phase contrast microscope after 24 and 48 h.

HEK 293 T cells = test: Cell morphology analysis, HEK 293 T; format: cell-based, human; conditions: 20 μM, 24 & 48 h, vs control
Procedure: (§4) HeLa and HEK 293 T cells are cultured in 6 well plates till attaining 70% confluency. Cells are starved for 12 h without serum and treated with PCI-34051 (20 μM) and Paclitaxel (20 μM) along with untreated control for 24 & 48 h. Examined difference in the morphology was captured by Olympus CKX41, ProgRes CT3 phase contrast microscope at 10X focussed lens.

HeLa cells [7] = test: Cell morphology analysis, HeLa; format: cell-based, human; conditions: HeLa, 20 μM, 24 & 48 h, vs control
Procedure: as §4

cytoplasmic HDAC8 activity (HDAC8 [2]; HeLa and HEK 293 T, cytoplasmic fraction (5 μg)) | nuclear HDAC8 enzyme activity (discussion statement) (HDAC8 [2]; HeLa and HEK 293 T, nuclear fraction (5 μg)) | Compound | levels of acetylated alpha tubulin [1] | levels of acetylated alpha tubulin ([1]; listed as forskolin) | HDAC8 enzyme activity, nuclear fraction (HDAC8 [2]; HEK 293 T) | HDAC8 enzyme activity, nuclear fraction (HDAC8 [2]; HeLa) | effect on HDAC8 (HDAC8 [3]) | localization of HDAC8 (HDAC8 [4]) | levels of acetylated alpha tubulin [5] | levels of acetylated alpha tubulin ([5]; listed as forskolin) | consequence of inhibition of tubulin polymerization (tubulin polymerization) | migration efficiency (rank order) (HeLa cells [6]) | cell morphology (aggregation / clump formation) (HEK 293 T cells) | cell morphology (cell size) (HeLa cells [7])
decreased | increased | C=C[C@@]1(C)CC(=O)[C@]2(O)[C@@]3(C)[C@@H](O)CCC(C)(C)[C@@H]3[C@H](O)[C@H](OC(C)=O)[C@@]2(C)O1 [Forskolin] | ac-alpha tubulin levels increase | increased significantly | significant increase in the nuclear fraction | significant increase in the nuclear fraction | known to inactivate HDAC8 by phosphorylation | no difference in localization of HDAC8 | ac-alpha tubulin levels increase | increased significantly; also recorded: significant increase of acetylated tubulin expression |  |  |  | 
 |  | CC(=O)O[C@H]1C(=O)[C@@]2(C)[C@H]([C@H](OC(=O)c3ccccc3)[C@]3(O)C[C@H](OC(=O)[C@H](O)[C@@H](NC(=O)c4ccccc4)c4ccccc4)C(C)=C1C3(C)C)[C@]1(OC(C)=O)CO[C@@H]1C[C@@H]2O [Paclitaxel] |  |  |  |  |  |  |  |  | cell-cycle arrest and cell death | Control> > Paclitaxel>PCI-34051 | clump formation; also recorded: cell aggregation | reduced (shrinking) cell size; also recorded: decreased cell size (shrinking)
